Measured values reported in PubChem BioAssay (NCI).
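48-hour exposure; five concentrations; linearly interpolated endpoints. TGI: concentration producing complete growth inhibition.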

Assays:
Assay in all cases: NCI-60 cell line screen, 48 h
TK-10 renal = tested on: TK-10 renal
OVCAR-5 ovarian = tested on: OVCAR-5 ovarian
HCC-2998 colon = tested on: HCC-2998 colon
COLO 205 colon = tested on: COLO 205 colon
PC-3 prostate = tested on: PC-3 prostate
UACC-257 melanoma = tested on: UACC-257 melanoma
SW-620 colon = tested on: SW-620 colon
SK-MEL-5 melanoma = tested on: SK-MEL-5 melanoma
HCT-15 colon = tested on: HCT-15 colon
ACHN renal = tested on: ACHN renal
LOX IMVI melanoma = tested on: LOX IMVI melanoma
T-47D breast = tested on: T-47D breast
SK-OV-3 ovarian = tested on: SK-OV-3 ovarian
SK-MEL-2 melanoma = tested on: SK-MEL-2 melanoma
MOLT-4 leukemia = tested on: MOLT-4 leukemia
HT29 colon = tested on: HT29 colon
SR leukemia = tested on: SR leukemia
MDA-N = tested on: MDA-N
HCT-116 colon = tested on: HCT-116 colon
CCRF-CEM leukemia = tested on: CCRF-CEM leukemia
UO-31 renal = tested on: UO-31 renal
HL-60(TB) leukemia = tested on: HL-60(TB) leukemia
SNB-75 CNS = tested on: SNB-75 CNS
RPMI-8226 leukemia = tested on: RPMI-8226 leukemia
SF-539 CNS = tested on: SF-539 CNS
IGROV1 ovarian = tested on: IGROV1 ovarian
EKVX NSCLC = tested on: EKVX NSCLC
SF-268 CNS = tested on: SF-268 CNS
CAKI-1 renal = tested on: CAKI-1 renal
A498 renal = tested on: A498 renal
HS 578T breast = tested on: HS 578T breast
MDA-MB-435 = tested on: MDA-MB-435
NCI-H23 lung = tested on: NCI-H23 lung
OVCAR-8 ovarian = tested on: OVCAR-8 ovarian
BT-549 breast = tested on: BT-549 breast
M14 melanoma = tested on: M14 melanoma
K-562 leukemia = tested on: K-562 leukemia
SN12C renal = tested on: SN12C renal
A549 NSCLC = tested on: A549 NSCLC
NCI/ADR-RES ovarian = tested on: NCI/ADR-RES ovarian
SK-MEL-28 melanoma = tested on: SK-MEL-28 melanoma
RXF 393 renal = tested on: RXF 393 renal
SNB-19 CNS = tested on: SNB-19 CNS
U251 CNS = tested on: U251 CNS
786-0 renal = tested on: 786-0 renal
NCI-H522 lung = tested on: NCI-H522 lung
KM12 colon = tested on: KM12 colon
SF-295 CNS = tested on: SF-295 CNS
DU-145 prostate = tested on: DU-145 prostate
HOP-62 NSCLC = tested on: HOP-62 NSCLC
MDA-MB-231 breast = tested on: MDA-MB-231 breast
MALME-3M melanoma = tested on: MALME-3M melanoma
UACC-62 melanoma = tested on: UACC-62 melanoma
OVCAR-3 ovarian = tested on: OVCAR-3 ovarian
MCF7 breast = tested on: MCF7 breast
NCI-H226 lung = tested on: NCI-H226 lung
HOP-92 NSCLC = tested on: HOP-92 NSCLC
NCI-H460 lung = tested on: NCI-H460 lung
OVCAR-4 ovarian = tested on: OVCAR-4 ovarian

Measured: TGI

CCOC(=O)C(O)(NC(=O)Nc1ccc(F)cc1)C(F)(F)F (configuration not stated)
not listed: NCI-H522 lung | KM12 colon | SF-295 CNS | DU-145 prostate | HOP-62 NSCLC | MDA-MB-231 breast | MALME-3M melanoma | UACC-62 melanoma | OVCAR-3 ovarian | MCF7 breast | NCI-H226 lung | HOP-92 NSCLC | NCI-H460 lung | OVCAR-4 ovarian
> 100 µM: all other assays above

CCOC(CCCN1CCC2(CC1)C(=O)N(C)CN2c1ccccc1)(OCC)c1ccc(F)cc1
30.5 µM: SK-MEL-28 melanoma
33 µM: K-562 leukemia
23.9 µM: M14 melanoma | A549 NSCLC
13.8 µM: MCF7 breast
28.6 µM: ACHN renal
33.5 µM: NCI/ADR-RES ovarian
28.7 µM: SW-620 colon
49.2 µM: CAKI-1 renal
29.6 µM: PC-3 prostate
14 µM: HT29 colon
6.88 µM: COLO 205 colon
22.6 µM: MOLT-4 leukemia | SNB-19 CNS
29.9 µM: RPMI-8226 leukemia
14.9 µM: SK-MEL-5 melanoma
19.8 µM: UO-31 renal
27.7 µM: 786-0 renal
39.5 µM: NCI-H23 lung
30.6 µM: HL-60(TB) leukemia
34.2 µM: NCI-H522 lung
9.81 µM: EKVX NSCLC
13.7 µM: SF-539 CNS
22.7 µM: HCT-15 colon
21.9 µM: SN12C renal
14.7 µM: HOP-62 NSCLC
46.5 µM: DU-145 prostate
21.6 µM: OVCAR-5 ovarian
18.7 µM: CCRF-CEM leukemia
22.2 µM: TK-10 renal
46.8 µM: SK-OV-3 ovarian
34.3 µM: UACC-62 melanoma
26.8 µM: OVCAR-3 ovarian
21.3 µM: HCC-2998 colon
29.8 µM: T-47D breast
24.5 µM: MDA-N
14.2 µM: HCT-116 colon
29.3 µM: MDA-MB-231 breast
29.5 µM: KM12 colon
29.7 µM: SF-268 CNS
25.3 µM: SF-295 CNS
33.6 µM: OVCAR-8 ovarian | NCI-H226 lung
34.6 µM: RXF 393 renal
43.8 µM: SNB-75 CNS
26.3 µM: U251 CNS
31 µM: LOX IMVI melanoma
18.5 µM: UACC-257 melanoma
31.2 µM: IGROV1 ovarian | MALME-3M melanoma

O=C1CCC[C@H]2O[C@@H](COCc3ccccc3)C[C@@H]12
not listed: HCC-2998 colon | LOX IMVI melanoma | IGROV1 ovarian | EKVX NSCLC | BT-549 breast | RXF 393 renal | NCI-H522 lung | MALME-3M melanoma
> 100 µM: all other assays above

Cc1ncc([N+](=O)[O-])n1CCNC(=O)CCCn1cnc([N+](=O)[O-])n1
> 31.6 µM: EKVX NSCLC
> 55.9 µM: SN12C renal
> 69.5 µM: TK-10 renal
not listed: BT-549 breast
> 100 µM: all other assays above

CC1OC(c2ccccc2)=CC(OCc2ccccc2)[C@H]1OCc1ccccc1 (some centres not stated)
not listed: OVCAR-5 ovarian | COLO 205 colon | UACC-257 melanoma | ACHN renal | LOX IMVI melanoma | SK-MEL-2 melanoma | HT29 colon | HCT-116 colon | UO-31 renal | HL-60(TB) leukemia | SF-539 CNS | A498 renal | HS 578T breast | MDA-MB-435 | BT-549 breast | K-562 leukemia | NCI/ADR-RES ovarian | SNB-19 CNS | U251 CNS | NCI-H522 lung | DU-145 prostate | OVCAR-3 ovarian | NCI-H226 lung | HOP-92 NSCLC | NCI-H460 lung | OVCAR-4 ovarian
> 10 µM: all other assays above
